# Columns and labels:
# [1] = test system: H. influenza (ATCC 49247); assay: In vitro MIC assay, H. influenza (ATCC 49247); format: cell-based; conditions: read-out: MIC H. influenza (ATCC 49247)
# P. acnes (ATCC 11827) = assay: In vitro MIC assay, P. acnes (ATCC 11827); format: cell-based; conditions: Cutibacterium acnes, ATCC11827; Brucella agar with laked sheep blood, 48 hours anaerobic, 35° C.
# E. coli MG 1655 DWAK = assay: In vitro MIC assay, E. coli MG 1655 DWAK; format: cell-based; conditions: Escherichia coli, MG1655DWAK; broth microdilution, 35° C., 18-24 hours
# Procedure: The following assay was used to determine the efficacy of tetracycline compounds against common bacteria. Serial dilutions of compounds were prepared in microdilution plates using a Tecan robotic workstation. Mueller Hinton broth cultures of gram negative and gram positive strains were grown or adjusted to match the turbidity of a 0.5 McFarland standard. 1:200 dilutions were made in appropriate broth (cation supplemented Mueller Hinton broth or Haemophilus test medium) to allow a final inoculum of 1×10^5 cfu. Lysed horse blood was used to supplement broth for testing S. pneumoniae. The plates were incubated at 35° C. in ambient air for 18-24 hours, read spectrophotometrically, and checked manually for evidence of bacterial growth. Serial dilutions of compounds were also added to Brucella agar supplemented with laked sheep blood for P. acnes tests. A standard inoculum was transferred to the plate using a stainless steel replicator. After 48 hours of anaerobic incubation at 35° C. plates were examined. The MIC was defined as the lowest concentration of the tetracycline compound that inhibits growth. Table 3 gives the MIC (μg/mL) of selected substituted tetracycline compounds against a variety of gram positive and gram negative bacteria.
# S. aureus RN4250 = assay: In vitro MIC assay, S. aureus RN4250; format: cell-based; conditions: Staphylococcus aureus, broth microdilution, 35° C., 18-24 hours
# [2] = test system: B. theraiotaomicron (ATCC 29741); assay: In vitro MIC assay, B. theraiotaomicron (ATCC 29741); format: cell-based
# S. aureus MRSA5 = assay: In vitro MIC assay, S. aureus MRSA5; format: cell-based; conditions: Staphylococcus aureus, broth microdilution, 35° C., 18-24 hours
# P. acnes (ATCC 6919) = assay: In vitro MIC assay, P. acnes (ATCC 6919); format: cell-based; conditions: Cutibacterium acnes, ATCC6919; Brucella agar with laked sheep blood, 48 hours anaerobic, 35° C.
# COS-1 or CHO cell = assay: Mammalian cell cytotoxicity assay (Resazurin; Alamar Blue); format: cell-based; conditions: COS-1 or CHO cells, 24 hour incubation
# Procedure: To predict the in vivo risks associated with the compounds of the invention, a soluble, non-toxic redox dye (“Resazurin”; Alamar Blue) was used to assess a compound's effect on cellular metabolism. COS-1 or CHO cell suspensions were prepared, seeded into 96-well black-walled microtiter plates, and incubated overnight at 37° C., in 5% CO2 and approximately 95% humidity. On the next day, serial dilutions of test drug were prepared and transferred to cell plates. Following a 24 hour incubation period, the media/drug was aspirated, and 50 μL of resazurin was added. After a 2 hour incubation, fluorescence measurements were taken (excitation […], emission 590 nm) and toxic effects in treated versus control cells were compared based on the degree of fluorescence in each well.
# S. aureus RN450 = assay: In vitro MIC assay, S. aureus RN450; format: cell-based; conditions: Staphylococcus aureus, broth microdilution, 35° C., 18-24 hours
# P. acnes (PBS 1073) = assay: In vitro MIC assay, P. acnes (PBS 1073); format: cell-based; conditions: Cutibacterium acnes; Brucella agar with laked sheep blood, 48 hours anaerobic, 35° C.
# P. acnes (ATCC 1077) = assay: In vitro MIC assay, P. acnes (ATCC 1077); format: cell-based; conditions: Cutibacterium acnes, ATCC1077; Brucella agar with laked sheep blood, 48 hours anaerobic, 35° C.
# S. pneumoniae 157E = assay: In vitro MIC assay, S. pneumoniae 157E; format: cell-based; conditions: Streptococcus pneumoniae, broth supplemented with lysed horse blood, 35° C., 18-24 hours
# B. fragilis (ATCC 25285) = assay: In vitro MIC assay, B. fragilis (ATCC 25285); format: cell-based; conditions: Bacteroides fragilis, ATCC25285
# P. acnes (PBS 1074) = assay: In vitro MIC assay, P. acnes (PBS 1074); format: cell-based; conditions: Cutibacterium acnes; Brucella agar with laked sheep blood, 48 hours anaerobic, 35° C.
# E. coli (ATCC 25922) = assay: In vitro MIC assay, E. coli (ATCC 25922); format: cell-based; conditions: Escherichia coli, ATCC25922; broth microdilution, 35° C., 18-24 hours
# P. aeruginosa K1033 = assay: In vitro MIC assay, P. aeruginosa K1033; format: cell-based; conditions: Pseudomonas aeruginosa, broth microdilution, 35° C., 18-24 hours
# E. coli translation = assay: In vitro translation assay for inhibition of bacterial protein synthesis (E. coli S30 Extract System, luciferase); format: biochemical; conditions: 37° C., 1 hour, luciferase luminescence
# Procedure: As a further measure of antibacterial activity, an E. coli S30 Extract System was used to quantitate inhibition of E. coli translation by tetracycline derivatives. This system contained all required components for translation, including a nucleic acid template which, when translated, produces functional luciferase. The reactions were set up with E. coli S30 extract, amino acids, DNA template and selected tetracycline compounds at concentrations of 100, 50, 25, 10, 5, and 1 μg/ml. The reactions were incubated at 37° C. for 1 hour and analyzed by adding the reaction mix to Steady-Glo Luciferase Assay substrate (Promega, Madison Wis.). Luminescence was measured with the Wallac Victor5 plate reader and inhibition is calculated by comparing luciferase activity in experimental reactions versus controls.
# [3] = test system: Mouse 3T3 fibroblast cells; assay: Phototoxicity assay (neutral red); format: cell-based; conditions: 3T3 cells; for phototoxicity at 30 μM, incubated in the UV light: UV light 1.6-1.8 mW/cm^2, 30 μM
# Procedure: Mouse 3T3 fibroblast cells were harvested and plated at a concentration of 1×10^5 cells/mL. Drug dilutions were made in HBSS and added to the plates. Duplicate plates were then incubated in the dark (for controls), or under UV light (meter reading of 1.6-1.8 mW/cm^2) for 50 minutes. Cells were then washed with HBSS, fresh medium was added, and plates were then incubated overnight. The following day, neutral red was added as an indicator of cell viability and plates were incubated for an additional 3 hours. Cells were then washed with HBSS and a solution of 50% EtOH, 10% glacial acetic acid is added. After a 20 minute incubation period, plates absorbance at 535 nm were read using a Wallac Victor 5 spectrophotometer. The phototoxicity in light-treated and control cultures was then compared.
Structure (SMILES),MIC [1] [µg/mL],MIC (P. acnes (ATCC 11827)) [µg/mL],MIC (E. coli MG 1655 DWAK) [µg/mL],MIC (S. aureus RN4250) [µg/mL],MIC [2] [µg/mL],MIC (S. aureus MRSA5) [µg/mL],MIC (P. acnes (ATCC 6919)) [µg/mL],cytotoxicity at 75 μg/mL (COS-1 or CHO cell),MIC (S. aureus RN450) [µg/mL],MIC (P. acnes (PBS 1073)) [µg/mL],MIC (P. acnes (ATCC 1077)) [µg/mL],MIC (S. pneumoniae 157E) [µg/mL],MIC (B. fragilis (ATCC 25285)) [µg/mL],MIC (P. acnes (PBS 1074)) [µg/mL],MIC (E. coli (ATCC 25922)) [µg/mL],MIC (P. aeruginosa K1033) [µg/mL],IC20 (E. coli translation) [µM],IC50 (E. coli translation) [µM],"phototoxicity at 30 μM, incubated in the UV light [3]","phototoxicity at 150 μM, incubated in the dark ([3]; incubated in the dark, 150 μM)"
CC1CCN(Cc2cccc3c2CC2CC4[C@@H](N(C)C)C(O)=C(C(N)=O)C(=O)[C@@]4(O)C(O)=C2C3=O)CC1 (some centres unmarked) [K],0 to 21,0 to 8,0 to 21,0 to 21,28 to 32,0 to 21,0 to 8,minimal cytotoxicity,0 to 21,28 to 32,28 to 32,0 to 21,0 to 8,28 to 32,0 to 21,0 to 21,–,–,–,–
CN(C)[C@H]1C(O)=C(C(N)=O)C(=O)[C@@]2(O)C(O)=C3C(=O)c4cccc(-c5ncccn5)c4CC3CC12 (some centres unmarked) [L],44 to 64,0 to 8,0 to 21,0 to 21,28 to 32,0 to 21,0 to 8,minimal cytotoxicity,0 to 21,28 to 32,28 to 32,0 to 21,0 to 8,28 to 32,22 to 43,0 to 21,–,–,–,–
CC1CCN(c2cccc3c2C(=O)C2=C(O)[C@]4(O)C(=O)C(C(N)=O)=C(O)[C@@H](N(C)C)C4CC2C3)CC1 (some centres unmarked) [M],0 to 21,–,0 to 21,44 to 64,–,44 to 64,–,minimal cytotoxicity,44 to 64,–,–,22 to 43,–,–,44 to 64,0 to 21,< 100,< 100,minimally phototoxic,not to be appreciably phototoxic
CC(=O)c1cccc2c1C(=O)C1=C(O)[C@]3(O)C(=O)C(C(N)=O)=C(O)[C@@H](N(C)C)C3CC1C2 (some centres unmarked) [N],44 to 64,–,0 to 21,44 to 64,–,44 to 64,–,minimal cytotoxicity,22 to 43,–,–,44 to 64,–,–,44 to 64,0 to 21,< 100,< 100,–,–
CN(C)[C@@H]1C(O)=C(C(N)=O)C(=O)[C@@]2(O)C(O)=C3C(=O)c4c(cccc4OS(=O)(=O)C(F)(F)F)CC3CC12 (some centres unmarked) [O],44 to 64,–,0 to 21,22 to 43,–,22 to 43,–,–,22 to 43,–,–,44 to 64,–,–,44 to 64,0 to 21,< 100,< 100,–,–
CN(C)c1cc2c(c3c1CC1CC4[C@H](N(C)C)C(O)=C(C(N)=O)C(=O)[C@@]4(O)C(O)=C1C3=O)OC(=O)N(CC(C)(C)C)C2 (some centres unmarked) [P],44 to 64,–,–,44 to 64,–,44 to 64,–,minimal cytotoxicity,44 to 64,–,–,44 to 64,–,–,–,–,–,–,minimally phototoxic,–
CN(C)c1cc2cc(-c3ccc(N)cc3)oc2c2c1CC1CC3[C@H](N(C)C)C(O)=C(C(N)=O)C(=O)[C@@]3(O)C(O)=C1C2=O (some centres unmarked) [Q],44 to 64,–,–,0 to 21,–,0 to 21,–,–,0 to 21,–,–,22 to 43,–,–,–,–,< 100,< 100,–,–
